# Source: US12637428B2, “Isoquinoline derivatives as SIK2 inhibitors” (Cancer Research Technology Limited, priority 2019, dated 2026)
# Tests used:
# Type in all cases: biochemical
# SIK2 = molecular target: T1, SIK2 (Homo sapiens, UniProt Q9H0K1); test: SIK2 kinase assay, IMAP fluorescence polarization; settings: 50 or 100 μM ATP, average
# T1 construct: purchased Life Technologies
# Experimental: (§1) SIK2, SIK1, SIK3, Abl, Src and EPHA2 Kinase Assays
# (§2) SIK2, SIK1, SIK3, Abl, Src and EPHA2 assays were performed using an IMAP fluorescence polarization assay format (Molecular Devices Inc.). 0.6-13 nM of each kinase (Life Technologies) was incubated for 60 min at room temperature with 100 nM of either FAM-Abltide, FAM-Srctide or FAM-HDAC protein derived peptide (synthesized by Alta Biosciences, Birmingham UK). Assays were carried out in the presence of 50 or 100 μM ATP in either 20 mM Tris buffer (pH 7.2) containing 4 mM MgCl2, 0.2% BSA and 2 mM DTT (SIK2, SIK1, SIK3, Abl, Src); or 20 mM Tris buffer (pH 8.5) containing 20 mM MgCl2, 0.5% BSA, 0.2% Triton and 5 mM DTT (EPHA2). Typically, dose response analyses were performed over concentration ranges from 0.00005-1 μM. Reactions were stopped by adding 2 assay volumes of 0.25% (v/v) IMAP binding reagent in either an 85:15 ratio (SIK2, SIK1, SIK3, Abl, EPHA2) or 30:70 ratio (Src) of IMAP binding buffers A and B (Molecular Devices). After incubation to allow the detection reagents to bind to the phosphorylated peptide, fluorescence polarization was measured on a Tecan Infinite plate reader at excitation (470 nm) and emission (530 nm) wavelengths. Inhibition was calculated using no inhibitor and no enzyme controls as 0 and 100% inhibition, respectively.
# (§3) Table 3 provides details of the inhibitory constant (nM) of compounds of the invention at SIK1, SIK2 and SIK3 and other kinases.
# Src = molecular target: T2, Src (Homo sapiens, UniProt P12931); test: Src kinase assay, IMAP fluorescence polarization; settings: 50 or 100 μM ATP, average
# T2 construct: purchased Life Technologies
# Experimental: as §1, §2, §3
# SIK1 = molecular target: T3, SIK1 (Homo sapiens, UniProt P57059); test: SIK1 kinase assay, IMAP fluorescence polarization; settings: 50 or 100 μM ATP, average
# T3 construct: purchased Life Technologies
# Experimental: as §1, §2, §3
# Abl = molecular target: T4, Abl (Homo sapiens, UniProt P00519); test: Abl kinase assay, IMAP fluorescence polarization; settings: 50 or 100 μM ATP, average
# T4 construct: purchased Life Technologies
# Experimental: as §1, §2, §3
# SIK3 = molecular target: T5, SIK3 (Homo sapiens, UniProt Q9Y2K2); test: SIK3 kinase assay, IMAP fluorescence polarization; settings: 50 or 100 μM ATP, average
# T5 construct: purchased Life Technologies
# Experimental: as §1, §2, §3
# EPHA2 = molecular target: T6, EPHA2 (Homo sapiens, UniProt P29317); test: EPHA2 kinase assay, IMAP fluorescence polarization; settings: 50 or 100 μM ATP, Tris pH 8.5, average
# T6 construct: purchased Life Technologies
# Experimental: as §1, §2, §3
# T1 sequence (Q9H0K1 whole entry): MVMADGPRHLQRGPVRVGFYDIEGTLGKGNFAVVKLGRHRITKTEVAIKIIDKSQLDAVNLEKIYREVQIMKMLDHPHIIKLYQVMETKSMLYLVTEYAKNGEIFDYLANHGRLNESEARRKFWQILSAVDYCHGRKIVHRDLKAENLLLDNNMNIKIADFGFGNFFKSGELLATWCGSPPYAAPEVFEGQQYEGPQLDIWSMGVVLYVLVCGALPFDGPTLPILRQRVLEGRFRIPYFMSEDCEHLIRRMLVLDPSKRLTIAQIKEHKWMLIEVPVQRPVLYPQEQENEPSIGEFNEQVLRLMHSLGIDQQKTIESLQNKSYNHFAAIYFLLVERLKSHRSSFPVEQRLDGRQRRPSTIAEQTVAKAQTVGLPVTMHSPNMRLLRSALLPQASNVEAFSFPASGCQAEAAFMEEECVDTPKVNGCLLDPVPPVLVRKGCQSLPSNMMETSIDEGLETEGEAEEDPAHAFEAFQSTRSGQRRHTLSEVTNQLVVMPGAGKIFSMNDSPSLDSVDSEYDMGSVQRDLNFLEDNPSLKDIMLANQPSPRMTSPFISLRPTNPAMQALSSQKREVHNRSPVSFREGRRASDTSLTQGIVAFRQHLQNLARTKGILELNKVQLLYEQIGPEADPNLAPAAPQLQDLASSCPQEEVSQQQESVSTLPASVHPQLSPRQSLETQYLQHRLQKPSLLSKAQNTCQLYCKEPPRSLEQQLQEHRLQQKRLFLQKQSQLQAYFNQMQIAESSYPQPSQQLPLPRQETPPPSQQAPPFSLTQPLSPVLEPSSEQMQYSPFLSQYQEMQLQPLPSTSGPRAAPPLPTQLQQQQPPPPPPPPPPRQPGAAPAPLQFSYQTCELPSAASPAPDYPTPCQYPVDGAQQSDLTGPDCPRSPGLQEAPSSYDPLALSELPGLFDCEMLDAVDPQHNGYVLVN
# T2 sequence (P12931 whole entry): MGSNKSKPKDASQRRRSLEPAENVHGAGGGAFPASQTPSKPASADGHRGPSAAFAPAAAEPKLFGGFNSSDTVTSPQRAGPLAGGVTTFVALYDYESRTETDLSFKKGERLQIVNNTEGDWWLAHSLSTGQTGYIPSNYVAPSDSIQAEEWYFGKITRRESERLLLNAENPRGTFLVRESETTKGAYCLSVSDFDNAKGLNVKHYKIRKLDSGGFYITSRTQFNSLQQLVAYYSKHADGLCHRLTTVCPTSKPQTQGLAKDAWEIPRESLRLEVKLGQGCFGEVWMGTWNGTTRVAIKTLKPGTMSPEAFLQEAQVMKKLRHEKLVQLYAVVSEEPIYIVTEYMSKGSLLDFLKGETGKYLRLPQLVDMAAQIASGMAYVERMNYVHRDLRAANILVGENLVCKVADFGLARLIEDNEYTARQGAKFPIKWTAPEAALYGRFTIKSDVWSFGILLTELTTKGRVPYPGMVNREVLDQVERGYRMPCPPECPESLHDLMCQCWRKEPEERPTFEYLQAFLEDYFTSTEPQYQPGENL
# T4 sequence (P00519 whole entry): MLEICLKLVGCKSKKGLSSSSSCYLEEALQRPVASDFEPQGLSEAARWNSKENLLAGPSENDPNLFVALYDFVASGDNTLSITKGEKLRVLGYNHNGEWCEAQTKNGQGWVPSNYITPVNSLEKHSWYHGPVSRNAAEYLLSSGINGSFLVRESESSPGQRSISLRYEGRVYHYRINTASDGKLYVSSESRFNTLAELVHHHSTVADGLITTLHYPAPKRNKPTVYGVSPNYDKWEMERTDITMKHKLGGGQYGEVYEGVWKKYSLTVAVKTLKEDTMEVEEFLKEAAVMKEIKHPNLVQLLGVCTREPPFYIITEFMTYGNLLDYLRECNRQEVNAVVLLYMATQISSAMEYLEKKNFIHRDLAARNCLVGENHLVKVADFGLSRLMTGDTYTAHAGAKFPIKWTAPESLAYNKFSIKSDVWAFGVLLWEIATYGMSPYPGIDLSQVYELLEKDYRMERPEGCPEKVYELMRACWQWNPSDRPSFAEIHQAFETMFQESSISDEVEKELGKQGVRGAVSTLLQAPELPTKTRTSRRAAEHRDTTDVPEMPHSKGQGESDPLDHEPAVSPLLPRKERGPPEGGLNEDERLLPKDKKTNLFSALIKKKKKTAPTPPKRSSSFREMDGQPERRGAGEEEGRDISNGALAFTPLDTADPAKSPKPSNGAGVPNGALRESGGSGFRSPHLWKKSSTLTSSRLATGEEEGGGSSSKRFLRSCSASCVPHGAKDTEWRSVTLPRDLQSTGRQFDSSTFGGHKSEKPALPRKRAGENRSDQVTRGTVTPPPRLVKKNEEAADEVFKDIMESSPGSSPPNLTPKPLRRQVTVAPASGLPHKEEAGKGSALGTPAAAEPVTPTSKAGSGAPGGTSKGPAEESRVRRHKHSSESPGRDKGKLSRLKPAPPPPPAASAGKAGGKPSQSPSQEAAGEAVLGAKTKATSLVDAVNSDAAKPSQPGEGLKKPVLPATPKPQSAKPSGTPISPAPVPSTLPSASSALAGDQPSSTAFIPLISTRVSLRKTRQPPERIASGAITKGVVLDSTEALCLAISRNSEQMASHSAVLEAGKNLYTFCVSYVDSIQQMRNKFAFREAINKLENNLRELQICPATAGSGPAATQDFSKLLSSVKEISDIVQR
# T3 sequence (P57059 whole entry): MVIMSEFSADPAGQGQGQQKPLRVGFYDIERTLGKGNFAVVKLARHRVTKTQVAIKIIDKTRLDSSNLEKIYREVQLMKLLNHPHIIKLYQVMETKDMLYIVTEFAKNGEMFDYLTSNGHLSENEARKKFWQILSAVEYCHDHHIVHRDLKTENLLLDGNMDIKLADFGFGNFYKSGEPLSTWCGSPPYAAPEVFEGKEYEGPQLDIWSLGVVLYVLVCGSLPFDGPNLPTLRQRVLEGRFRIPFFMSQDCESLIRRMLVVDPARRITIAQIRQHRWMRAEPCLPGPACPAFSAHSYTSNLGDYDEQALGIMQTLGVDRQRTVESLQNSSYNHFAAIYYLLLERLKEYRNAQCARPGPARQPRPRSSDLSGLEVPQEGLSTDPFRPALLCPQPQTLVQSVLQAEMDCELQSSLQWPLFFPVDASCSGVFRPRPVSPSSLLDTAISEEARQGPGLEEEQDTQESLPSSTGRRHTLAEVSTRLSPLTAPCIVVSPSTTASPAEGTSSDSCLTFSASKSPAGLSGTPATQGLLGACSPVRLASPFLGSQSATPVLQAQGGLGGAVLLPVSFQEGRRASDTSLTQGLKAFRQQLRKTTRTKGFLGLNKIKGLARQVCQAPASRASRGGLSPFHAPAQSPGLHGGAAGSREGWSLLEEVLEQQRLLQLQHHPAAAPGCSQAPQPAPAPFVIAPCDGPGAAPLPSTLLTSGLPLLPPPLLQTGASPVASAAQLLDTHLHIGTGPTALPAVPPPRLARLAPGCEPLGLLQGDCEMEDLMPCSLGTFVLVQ
# T5 sequence (Q9Y2K2 whole entry): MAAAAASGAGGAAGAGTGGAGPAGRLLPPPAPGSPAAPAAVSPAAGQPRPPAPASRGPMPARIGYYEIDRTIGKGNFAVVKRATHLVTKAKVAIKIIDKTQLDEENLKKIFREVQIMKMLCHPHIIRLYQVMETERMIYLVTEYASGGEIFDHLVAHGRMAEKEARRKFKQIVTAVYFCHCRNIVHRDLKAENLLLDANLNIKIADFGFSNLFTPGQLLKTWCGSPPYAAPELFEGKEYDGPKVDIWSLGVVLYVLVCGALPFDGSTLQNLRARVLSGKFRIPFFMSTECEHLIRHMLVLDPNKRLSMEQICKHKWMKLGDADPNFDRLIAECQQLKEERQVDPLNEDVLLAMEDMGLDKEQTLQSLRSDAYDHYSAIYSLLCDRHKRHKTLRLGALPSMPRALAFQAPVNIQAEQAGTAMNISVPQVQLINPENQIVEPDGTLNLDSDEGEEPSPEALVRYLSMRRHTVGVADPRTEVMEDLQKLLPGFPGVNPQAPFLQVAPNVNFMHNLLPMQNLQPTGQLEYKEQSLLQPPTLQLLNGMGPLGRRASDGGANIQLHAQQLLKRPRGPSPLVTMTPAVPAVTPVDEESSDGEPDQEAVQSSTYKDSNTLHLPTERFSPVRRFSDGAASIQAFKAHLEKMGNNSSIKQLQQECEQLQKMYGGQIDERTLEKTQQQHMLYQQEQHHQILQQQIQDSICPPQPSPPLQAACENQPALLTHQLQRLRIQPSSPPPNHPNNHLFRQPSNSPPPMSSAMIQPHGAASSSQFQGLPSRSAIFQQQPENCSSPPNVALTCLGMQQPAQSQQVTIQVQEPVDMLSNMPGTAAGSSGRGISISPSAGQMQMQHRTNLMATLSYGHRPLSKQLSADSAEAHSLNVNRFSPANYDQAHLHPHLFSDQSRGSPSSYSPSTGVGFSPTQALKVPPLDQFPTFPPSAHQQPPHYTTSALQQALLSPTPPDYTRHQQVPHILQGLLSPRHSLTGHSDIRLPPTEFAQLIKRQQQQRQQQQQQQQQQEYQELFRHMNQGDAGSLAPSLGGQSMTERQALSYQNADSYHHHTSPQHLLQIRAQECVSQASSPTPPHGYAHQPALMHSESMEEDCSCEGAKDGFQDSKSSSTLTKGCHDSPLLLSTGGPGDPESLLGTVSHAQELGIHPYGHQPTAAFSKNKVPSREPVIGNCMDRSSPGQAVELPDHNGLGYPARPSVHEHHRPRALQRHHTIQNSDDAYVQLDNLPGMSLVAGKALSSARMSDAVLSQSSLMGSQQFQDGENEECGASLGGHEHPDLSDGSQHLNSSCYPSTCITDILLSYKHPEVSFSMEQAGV
Structure (SMILES),Ki (SIK2),Ki (Src),Ki (Abl),further results
"Cc1cccc(F)c1-c1cc(OC2CCNCC2)c2cc(N)ncc2c1 [Example 46, 7-(2-Fluoro-6-methyl-phenyl)-5-(4-piperidyloxy)isoquinolin-3-amine]",0.0203 nM,95.8 nM,3.63 nM,Ki (SIK1): 0.192 nM; Ki (SIK3): 0.125 nM; Ki (EPHA2): 39.2 nM
"Cc1cccc(Cl)c1-c1ccc2c(C(=O)NCC3CNC3)c(N)ncc2c1 [Example 39, 3-amino-N-(azetidin-3-ylmethyl)-7-(2-chloro-6-methyl-phenyl)isoquinoline-4-carboxamide]",19.6 nM,,,
"Cc1cccc(F)c1-c1cc(NC2CCCCC2)c2cc(N)ncc2c1 [Example 111, N5-cyclohexyl-7-(2-fluoro-6-methyl-phenyl)isoquinoline-3,5-diamine]",83.5 nM,,,
"Cc1cccc(Cl)c1-c1ccc2c(C(=O)NCC3CCN(C)CC3)c(N)ncc2c1 [Example 96, 3-amino-7-(2-chloro-6-methyl-phenyl)-N-[(1-methyl-4-piperidyl)methyl] isoquinoline-4-carboxamide]",54.5 nM,,,
"Cc1cccc(F)c1-c1ccc2c(C(=O)NCC3CN(C)C3)c(N)ncc2c1 [Example 90, 3-amino-7-(2-fluoro-6-methyl-phenyl)-N-[(1-methylazetidin-3-yl)methyl]isoquinoline-4-carboxamide]",32.3 nM,,,
"Cc1cccc(Cl)c1-c1ccc2c(C(=O)NC3CNC3)c(N)ncc2c1 [Example 38, 3-amino-N-(azetidin-3-yl)-7-(2-chloro-6-methyl-phenyl)isoquinoline-4-carboxamide]",11.3 nM,137 nM,88.5 nM,Ki (EPHA2): 764 nM
"Cc1cccc(F)c1-c1ccc2c(C(=O)N[C@@H]3CCN(C)C3)c(N)ncc2c1 [Example 92, 3-amino-7-(2-fluoro-6-methyl-phenyl)-N-[(3R)-1-methylpyrrolidin-3-yl]isoquinoline-4-carboxamide]",16.8 nM,,,
"Cc1cccc(Cl)c1-c1ccc2c(C(=O)NC3CCNCC3)c(N)ncc2c1 [Example 41, 3-amino-7-(2-chloro-6-methyl-phenyl)-N-(4-piperidyl)isoquinoline-4-carboxamide]",3.75 nM,58.4 nM,190 nM,Ki (SIK1): 6.07 nM; Ki (SIK3): 61.7 nM
"Cc1cccc(F)c1-c1ccc2c(C(=O)NC3CCN(C)CC3)c(N)ncc2c1 [Example 87, 3-Amino-7-(2-fluoro-6-methyl-phenyl)-N-(1-methyl-4-piperidyl)isoquinoline-4-carboxamide]",9.99 nM,574 nM,667 nM,
"Cc1cccc(F)c1-c1cc(N2CC[C@H](O)C2)c2cc(N)ncc2c1 [Example 105, (3S)-1-[3-amino-7-(2-fluoro-6-methyl-phenyl)-5-isoquinolyl]pyrrolidin-3-ol]",38.1 nM,> 10000 nM,169 nM,
"Cc1cccc(F)c1-c1ccc2c(C(=O)NCC3CCN(C)CC3)c(N)ncc2c1 [Example 91, 3-amino-7-(2-fluoro-6-methyl-phenyl)-N-[(1-methyl-4-piperidyl)methyl] isoquinoline-4-carboxamide]",47.6 nM,,,
"Cc1cccc(F)c1-c1ccc2c(C(=O)NC3CNC3)c(N)ncc2c1 [Example 32, 3-Amino-N-(azetidin-3-yl)-7-(2-fluoro-6-methyl-phenyl)isoquinoline-4-carboxamide]",27.3 nM,723 nM,487 nM,
"Nc1cc2c(NC3CCNCC3)cc(-c3c(F)cccc3Cl)cc2cn1 [Example 20, 7-(2-chloro-6-fluoro-phenyl)-N5-(4-piperidyl)isoquinoline-3,5-diamine]",26.1 nM,,,
"Cc1cccc(F)c1-c1cc(N2CC[C@@H](CN(C)C)C2)c2cc(N)ncc2c1 [Example 81, 5-[(3S)-3-[(dimethylamino)methyl]pyrrolidin-1-yl]-7-(2-fluoro-6-methyl-phenyl) isoquinolin-3-amine]",7.68 nM,1350 nM,296 nM,
"Cc1cccc(F)c1-c1ccc2c(C(=O)N[C@H]3CCNC3)c(N)ncc2c1 [Example 37, 3-amino-7-(2-fluoro-6-methyl-phenyl)-N-[(3S)-pyrrolidin-3-yl]isoquinoline-4-carboxamide]",7.74 nM,,,

# More lines, in order of falling Ki (SIK2), values ahead:
Ki (SIK2),Ki (Src),Ki (Abl),Structure (SMILES),further results
41.5 nM,,,"Cc1cccc(F)c1-c1ccc2c(C(=O)NCC3CCNCC3)c(N)ncc2c1 [Example 34, 3-amino-7-(2-fluoro-6-methyl-phenyl)-N-(4-piperidylmethyl)isoquinoline-4-carboxamide]",
39.5 nM,,,"Cc1cccc(Cl)c1-c1ccc2c(C(=O)NCC3CCNCC3)c(N)ncc2c1 [Example 40, 3-amino-7-(2-chloro-6-methyl-phenyl)-N-(4-piperidylmethyl)isoquinoline-4-carboxamide]",
31.6 nM,,,"Cc1cccc(Cl)c1-c1ccc2c(C(=O)NCC3CN(C)C3)c(N)ncc2c1 [Example 95, 3-amino-7-(2-chloro-6-methyl-phenyl)-N-[(1-methylazetidin-3-yl)methyl]isoquinoline-4-carboxamide]",
26.8 nM,,,"Cc1cccc(F)c1-c1ccc2c(C(=O)N[C@H]3CCN(C)C3)c(N)ncc2c1 [Example 93, 3-amino-7-(2-fluoro-6-methyl-phenyl)-N-[(3S)-1-methylpyrrolidin-3-yl]isoquinoline-4-carboxamide]",
18.2 nM,,,"Cc1cccc(F)c1-c1ccc2c(C(=O)N[C@@H]3CCNC3)c(N)ncc2c1 [Example 36, 3-amino-7-(2-fluoro-6-methyl-phenyl)-N-[(3R)-pyrrolidin-3-yl]isoquinoline-4-carboxamide]",
14.4 nM,,,"Cc1cccc(Cl)c1-c1ccc2c(C(=O)NC3CN(C)C3)c(N)ncc2c1 [Example 94, 3-amino-7-(2-chloro-6-methyl-phenyl)-N-(1-methylazetidin-3-yl)isoquinoline-4-carboxamide]",
13 nM,,,"Cc1cccc(Cl)c1-c1ccc2c(C(=O)N[C@@H]3CCN(C)C3)c(N)ncc2c1 [Example 97, 3-amino-7-(2-chloro-6-methyl-phenyl)-N-[(3R)-1-methylpyrrolidin-3-yl]isoquinoline-4-carboxamide]",
12.8 nM,317 nM,481 nM,"Cc1cccc(Cl)c1-c1ccc2c(C(=O)N[C@H]3CCN(C)C3)c(N)ncc2c1 [Example 98, 3-amino-7-(2-chloro-6-methyl-phenyl)-N-[(3S)-1-methylpyrrolidin-3-yl]isoquinoline-4-carboxamide]",
11.8 nM,,,"Cc1cccc(F)c1-c1ccc2c(C(=O)NCC3CNC3)c(N)ncc2c1 [Example 33, 3-amino-N-(azetidin-3-ylmethyl)-7-(2-fluoro-6-methyl-phenyl)isoquinoline-4-carboxamide]",
11.7 nM,2420 nM,> 10000 nM,"CN1CCC(Nc2cc(-c3c(F)cccc3Cl)cc3cnc(N)cc23)CC1 [Example 64, 7-(2-Chloro-6-fluoro-phenyl)-N5-(1-methyl-4-piperidyl)isoquinoline-3,5-diamine]",
11.4 nM,564 nM,446 nM,"Cc1cccc(F)c1-c1ccc2c(C(=O)NC3CCNCC3)c(N)ncc2c1 [Example 35, 3-amino-7-(2-fluoro-6-methyl-phenyl)-N-(4-piperidyl)isoquinoline-4-carboxamide]",
6.54 nM,136 nM,345 nM,"Cc1cccc(Cl)c1-c1ccc2c(C(=O)N[C@H]3CCNC3)c(N)ncc2c1 [Example 43, 3-amino-7-(2-chloro-6-methyl-phenyl)-N-[(3S)-pyrrolidin-3-yl]isoquinoline-4-carboxamide]",
